Target: Adenosine receptor A2a (Homo sapiens, UniProt P29274)
Experiment: A2a binding affinity assay C
Method: Method (C): Measurement of A2a Binding Affinity Using an Alternative Radioligand Binding AssayMembranes used in this procedure were made by washing cell cultures twice with DPBS buffer (Dulbecco's phosphate buffered saline without calcium and magnesium, ThermoFisher Scientific, Cat. No. A1285601), and harvesting the cell cultures by mechanical scraping. The cells were collected by centrifugation and re-suspended in 10 mM HEPES, pH 7.4 containing 0.1 mM benzamidine (Sigma, Cat. No. B6506) and 0.1 mM PMSF (phenylmethylsulfonyl fluoride, Sigma, Cat. No. 10837091001). Cells were freeze-thawed twice in a dry ice/ethanol bath and homogenized with 25 to 30 strokes in a glass dounce homogenizer (Wheaton, Cat. No. 357546). Membranes were pelleted at 40,000×g for 20 min at 4° C. and re-suspended in assay buffer (5 mM HEPES, pH 7.4, 5 mM MgCl2; supplemented with 0.1 mM benzamidine) at a protein concentration of 2.6 mg/mL. Protein concentration was determined by the Bio-Rad method (Bio-Rad, Cat. No. 5000002). […] After normalization to total and non-specific binding, the percent effect at each compound concentration was calculated. The plot of percent effect versus the log of compound concentration was analyzed electronically using a 4-parameter logistic fit based on the Levenberg-Marquardt algorithm to generate IC50 values.

Sequence of Adenosine receptor A2a (P29274 whole entry): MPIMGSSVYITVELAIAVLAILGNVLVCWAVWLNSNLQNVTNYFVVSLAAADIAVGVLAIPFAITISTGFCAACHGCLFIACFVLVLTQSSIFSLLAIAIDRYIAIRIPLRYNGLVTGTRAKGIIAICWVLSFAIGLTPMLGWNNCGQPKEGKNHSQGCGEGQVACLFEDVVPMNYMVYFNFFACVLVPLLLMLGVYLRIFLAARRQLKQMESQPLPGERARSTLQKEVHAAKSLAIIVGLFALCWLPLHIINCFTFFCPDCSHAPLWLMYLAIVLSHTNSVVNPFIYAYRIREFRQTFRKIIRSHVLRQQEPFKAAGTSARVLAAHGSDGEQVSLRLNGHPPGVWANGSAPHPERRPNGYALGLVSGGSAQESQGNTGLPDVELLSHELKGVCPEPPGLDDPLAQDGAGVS

An IC50 of 122 nM was found for `Nc1nc(-c2ccccc2)c(C2CC2)c2nc(CCN3CC(F)(F)C3)nn12` [US12414952, Example 20.6] in this work.
